Values joined by “and” are separate entries in the source; they are usually repeats but may differ in a detail not shown here. Identical values can stand only once.
Assay: xn = mol fraction of the nth substance listed
Conditions: Fluid (supercritical or subcritical phases), quasistatic thermogram and barogram, x2 = 0.7393

N [ammonia] + O
Conditions | thermal pressure coefficient
330.88 K, Mass density=540.25 kg/m3 | 7 kPa/K
349.52 K, Mass density=540.25 kg/m3 | 12 kPa/K
366.71 K, Mass density=540.25 kg/m3 | 17 kPa/K
397.73 K, Mass density=540.25 kg/m3 | 32 kPa/K
402.59 K, Mass density=671.23 kg/m3 | 30 kPa/K
407.37 K, Mass density=649.65 kg/m3 | 37 kPa/K
407.57 K, Mass density=649.65 kg/m3 | 37 kPa/K
407.79 K, Mass density=649.65 kg/m3 | 40 kPa/K
421.43 K, Mass density=540.25 kg/m3 | 43 kPa/K
446.89 K, Mass density=540.25 kg/m3 | 58 kPa/K
473.33 K, Mass density=540.25 kg/m3 | 77 kPa/K
478.28 K, Mass density=671.23 kg/m3 | 86 kPa/K
485.04 K, Mass density=671.23 kg/m3 | 86 kPa/K
492.71 K, Mass density=671.23 kg/m3 | 87 kPa/K
494.07 K, Mass density=540.25 kg/m3 | 97 kPa/K
498.62 K, Mass density=671.23 kg/m3 | 97 kPa/K
507.04 K, Mass density=671.23 kg/m3 | 118 kPa/K
508.36 K, Mass density=671.23 kg/m3 | 941 kPa/K
509.3 K, Mass density=649.65 kg/m3 | 106 kPa/K
509.3 K, Mass density=671.23 kg/m3 | 935 kPa/K
513.52 K, Mass density=671.23 kg/m3 | 976 kPa/K
514.53 K, Mass density=649.65 kg/m3 | 119 kPa/K
516.77 K, Mass density=540.25 kg/m3 | 116 kPa/K
517.23 K, Mass density=540.25 kg/m3 | 119 kPa/K
519.21 K, Mass density=649.65 kg/m3 | 137 kPa/K
519.86 K, Mass density=649.65 kg/m3 | 896 kPa/K
520.05 K, Mass density=649.65 kg/m3 | 897 kPa/K
520.42 K, Mass density=649.65 kg/m3 | 899 kPa/K
521.54 K, Mass density=649.65 kg/m3 | 899 kPa/K
527.01 K, Mass density=649.65 kg/m3 | 915 kPa/K
527.03 K, Mass density=456.58 kg/m3 | 125 kPa/K
530.51 K, Mass density=552.58 kg/m3 | 130 kPa/K
530.67 K, Mass density=594.32 kg/m3 | 131 kPa/K
530.98 K, Mass density=476.25 kg/m3 | 129 kPa/K
534.1 K, Mass density=594.32 kg/m3 | 139 kPa/K
536.84 K, Mass density=540.25 kg/m3 | 135 kPa/K
537.29 K, Mass density=540.25 kg/m3 | 135 kPa/K
539.15 K, Mass density=594.32 kg/m3 | 145 kPa/K
539.88 K, Mass density=552.58 kg/m3 | 138 kPa/K
540.06 K, Mass density=476.25 kg/m3 | 137 kPa/K
540.79 K, Mass density=476.25 kg/m3 | 137 kPa/K
541.46 K, Mass density=594.32 kg/m3 | 152 kPa/K
541.53 K, Mass density=456.58 kg/m3 | 139 kPa/K
542.16 K, Mass density=594.32 kg/m3 | 153 kPa/K
544.61 K, Mass density=594.32 kg/m3 | 158 kPa/K
545.26 K, Mass density=594.32 kg/m3 | 161 kPa/K
546.16 K, Mass density=594.32 kg/m3 | 744 kPa/K
546.26 K, Mass density=594.32 kg/m3 | 736 kPa/K
548.44 K, Mass density=476.25 kg/m3 | 146 kPa/K
549.77 K, Mass density=594.32 kg/m3 | 742 kPa/K
550.79 K, Mass density=552.58 kg/m3 | 152 kPa/K
551.43 K, Mass density=552.58 kg/m3 | 154 kPa/K
552.99 K, Mass density=456.58 kg/m3 | 160 kPa/K
553.25 K, Mass density=456.58 kg/m3 | 154 kPa/K
553.7 K, Mass density=376.89 kg/m3 | 161 kPa/K
554.5 K, Mass density=552.58 kg/m3 | 156 kPa/K
555.04 K, Mass density=552.58 kg/m3 | 159 kPa/K
556.55 K, Mass density=540.25 kg/m3 | 159 kPa/K
556.9 K, Mass density=456.58 kg/m3 | 158 kPa/K
558.82 K, Mass density=552.58 kg/m3 | 167 kPa/K
559.36 K, Mass density=476.25 kg/m3 | 160 kPa/K
560.44 K, Mass density=552.58 kg/m3 | 171 kPa/K
562 K, Mass density=552.58 kg/m3 | 654 kPa/K
562.66 K, Mass density=540.25 kg/m3 | 177 kPa/K
563.63 K, Mass density=342.18 kg/m3 | 162 kPa/K
563.98 K, Mass density=540.25 kg/m3 | 181 kPa/K
564.69 K, Mass density=540.25 kg/m3 | 185 kPa/K
565.22 K, Mass density=540.25 kg/m3 | 186 kPa/K
565.31 K, Mass density=540.25 kg/m3 | 187 kPa/K
566.19 K, Mass density=540.25 kg/m3 | 611 kPa/K
566.98 K, Mass density=540.25 kg/m3 | 606 kPa/K
568.48 K, Mass density=456.58 kg/m3 | 174 kPa/K
570.03 K, Mass density=476.25 kg/m3 | 179 kPa/K
570.81 K, Mass density=476.25 kg/m3 | 182 kPa/K
571.02 K, Mass density=376.89 kg/m3 | 175 kPa/K
571.35 K, Mass density=476.25 kg/m3 | 183 kPa/K
571.99 K, Mass density=456.58 kg/m3 | 187 kPa/K
572.95 K, Mass density=540.25 kg/m3 | 618 kPa/K
574.99 K, Mass density=476.25 kg/m3 | 191 kPa/K
575.79 K, Mass density=476.25 kg/m3 | 191 kPa/K
575.93 K, Mass density=120.03 kg/m3 | 148 kPa/K
576.8 K, Mass density=147.43 kg/m3 | 154 kPa/K
578.55 K, Mass density=456.58 kg/m3 | 197 kPa/K
578.75 K, Mass density=540.25 kg/m3 | 632 kPa/K
579.5 K, Mass density=476.25 kg/m3 | 198 kPa/K
579.85 K, Mass density=456.58 kg/m3 | 204 kPa/K
580.18 K, Mass density=476.25 kg/m3 | 203 kPa/K and 452 kPa/K
580.65 K, Mass density=476.25 kg/m3 | 456 kPa/K
580.9 K, Mass density=329 kg/m3 | 185 kPa/K
581.27 K, Mass density=476.25 kg/m3 | 457 kPa/K
581.59 K, Mass density=342.18 kg/m3 | 192 kPa/K
581.68 K, Mass density=320.33 kg/m3 | 186 kPa/K
581.77 K, Mass density=456.58 kg/m3 | 198 kPa/K
582.01 K, Mass density=120.03 kg/m3 | 155 kPa/K
582.45 K, Mass density=308.35 kg/m3 | 190 kPa/K
582.46 K, Mass density=307.35 kg/m3 | 190 kPa/K
582.55 K, Mass density=312.91 kg/m3 | 189 kPa/K
582.99 K, Mass density=540.25 kg/m3 | 639 kPa/K
583.68 K, Mass density=456.58 kg/m3 | 203 kPa/K
583.77 K, Mass density=160.07 kg/m3 | 168 kPa/K
584.72 K, Mass density=456.58 kg/m3 | 202 kPa/K
584.81 K, Mass density=120.03 kg/m3 | 155 kPa/K
584.88 K, Mass density=476.25 kg/m3 | 473 kPa/K
584.95 K, Mass density=456.58 kg/m3 | 206 kPa/K and 410 kPa/K
585.31 K, Mass density=120.03 kg/m3 | 154 kPa/K and 128 kPa/K
585.68 K, Mass density=147.43 kg/m3 | 166 kPa/K
586.08 K, Mass density=120.03 kg/m3 | 100 kPa/K
586.37 K, Mass density=120.03 kg/m3 | 96 kPa/K
587.24 K, Mass density=456.58 kg/m3 | 416 kPa/K
589.66 K, Mass density=305.44 kg/m3 | 194 kPa/K
590.01 K, Mass density=297.6 kg/m3 | 191 kPa/K
590.09 K, Mass density=303.47 kg/m3 | 191 kPa/K
590.18 K, Mass density=342.18 kg/m3 | 198 kPa/K
590.18 K, Mass density=376.89 kg/m3 | 201 kPa/K
590.7 K, Mass density=309.95 kg/m3 | 203 kPa/K
591.04 K, Mass density=308.35 kg/m3 | 200 kPa/K
591.13 K, Mass density=301.94 kg/m3 | 196 kPa/K
591.13 K, Mass density=329 kg/m3 | 194 kPa/K
591.32 K, Mass density=376.89 kg/m3 | 202 kPa/K
591.47 K, Mass density=160.07 kg/m3 | 177 kPa/K
591.47 K, Mass density=299.79 kg/m3 | 190 kPa/K
591.47 K, Mass density=320.33 kg/m3 | 199 kPa/K
591.73 K, Mass density=376.89 kg/m3 | 202 kPa/K
592.08 K, Mass density=312.91 kg/m3 | 191 kPa/K
592.42 K, Mass density=147.43 kg/m3 | 176 kPa/K
592.68 K, Mass density=307.35 kg/m3 | 194 kPa/K
592.94 K, Mass density=188.05 kg/m3 | 184 kPa/K
593.2 K, Mass density=147.43 kg/m3 | 175 kPa/K
593.54 K, Mass density=311.19 kg/m3 | 197 kPa/K
593.89 K, Mass density=147.43 kg/m3 | 148 kPa/K
594.06 K, Mass density=376.89 kg/m3 | 206 kPa/K
594.14 K, Mass density=147.43 kg/m3 | 168 kPa/K and 141 kPa/K

Reference: the NIST ThermoML archive (doi:10.1016/j.fluid.2010.01.023)
